Test results as given in patent US12282013B2, “Ex vivo methods of screening for, and characterizing, cardiac therapeutics using preloaded cardiac tissues” (NOVOHEART INTERNATIONAL LIMITED, priority 2018, dated 2025).

Tests used:
[1] = tested on: human ventricular cardiac organoid chamber (hvCOC); assay: hvCOC pressure-volume / developed pressure assay with preload; format: cell-based; settings: for area in the pressure-volume loops: absence of preload
Procedure: The hvCOC was made by a similar approach: Ten million hESC-vCMs and 1 million human foreskin fibroblasts were mixed with 1650 μl collagen gel (same relative composition as described above for hvCTS). The mixture was then cast into a 13-mm diameter cavity in a 2% agarose gel. A modified 6-Fr silicone balloon Foley catheter (Cook Medical) was then inflated and placed into the center of the bioreactor to form the inner boundary of the hvCOC. An 8 mm porous polyethylene ring (Fisher Scientific) and a 6 mm rubber ring were placed on top of the catheter to provide an hvCOC anchor. The polyethylene ring, rubber ring and the catheter were held by a metal tube with 3.9 mm outer diameter. The cell mixture was allowed to solidify for 2 hours in a 37° C., 5% CO2 incubator. Then, the solidified cell mixture was fed with 7 ml DMEM medium (high glucose) supplemented with 10% newborn calf serum. After 24 hours, the medium was aspirated and the agarose gel was removed. Twenty ml of medium was replenished and half of the medium was changed every 2 days. Further description of the hvCOC is provided in Example 5.
Human ventricular Cardiac Organoid Chamber (hvCOC) behavior was measured on day 10 post-fabrication. First, the catheter was deflated and removed. Then, the culture medium was replaced by phenol red-free DMEM (with 25 mM glucose and 25 mM HEPES). Rubber tubing was then filled with medium and used to connect the metal tube of the hvCOC apparatus to a medium tank. The hvCOC was electrically paced at 1.5 Hz (5V/cm) and the pressure-volume change resulting from the paced contractions was recorded for 30 seconds. Pressure was measured by a pressure sensor (Millar) placed inside the hvCOC, and associated area change of the hvCOC was captured by high-speed camera (Allied Vision). The medium tank level was then adjusted from 0 mm (relative to medium level of that in the hvCOC bioreactor), to 2.5, 5 and 7.5 mm above the medium level (representing 0, 2.5, 5 and 7.5 mm H2O preload). The measurements at all 4 preloads (0, 2.5, 5 and 7.5 mm H2O) were then repeated at each dose (0.01 and 0.1 μM) of levosimendan after a 5-minute incubation period.

[2] = tested on: human ventricular cardiac tissue strip (hvCTS); assay: hvCTS contractile force assay, unstretched, 1-Hz pacing; format: cell-based; settings: hvCTS paced at 1 Hz, increasing concentrations, responses described as blunted
Procedure: Seventy-two hours after dissociation, the hvCTS was made by mixing 1.3 million hESC-vCMs and 0.13 million human foreskin fibroblasts, together with 110 μl collagen gel comprising 1.67 mg/ml collagen and […] Matrigel. The cell mixture was then cast into a PDMS mold with two pillars and allowed to solidify for 2 hours in a 37° C., 5% CO2 incubator. Then, the cell mixture was fed with 7 ml DMEM medium (high glucose) supplemented with 10% newborn calf serum. Half of the medium was changed every 2 days.
On day 17 post-fabrication, human ventricular Cardiac Tissue Strips (hvCTS) were transferred from their molds and hooked to the force transducer unit and motor unit of an isolated muscle bath system (Aurora Scientific). The length of the hooked tissue was then adjusted to reach minimal developed tension, which was defined as the original length (Lo, or 0% Lmax) of the tissue. The hvCTS was then incubated in the bath at 37° C. for 10 minutes. Next, the hvCTS was electrically paced (at 5V/cm) at 1 Hz frequency, and stretched from 0 to 50% strain in 2.5% increments every 20 seconds. Recordings were made using Dynamic Muscle Control software (Aurora Scientific). The contractile parameters at each % strain, such as developed force, contractile rate and relaxation rate, were analyzed by Clampfit (Molecular Devices). The length with the maximum developed force was defined as Lmax. […]

SMILES: CC(C)NCC(O)c1ccc(O)c(O)c1 (centres unmarked) [isoproterenol]
- area in the pressure-volume loops ([1]; hvCOC): increase in area in the pressure-volume loops
- contractile force [2]: trend of increasing contractile force

SMILES: C[C@@H]1CC(=O)NN=C1c1ccc(NN=C(C#N)C#N)cc1 [levosimendan]
- increase in developed pressure ([1]; hvCOC, 5 mmH2O preload, 0.1 μM): approximately 50%
- developed pressure, dose dependence ([1]; hvCOC, 7.5 mmH2O preload): did not show any significant dose-dependent increase
- area in the pressure-volume loops ([1]; hvCOC): increase in area in the pressure-volume loops
- developed pressure ([1]; hvCOC, no preload (0 mmH2O), 1 μM): no increase in developed pressure
- response of hvCOC (developed pressure) ([1]; preload increased to 2.5 or 5 mmH2O): greatly enhanced the response
- contractile force [2]: trend of increasing contractile force
